Assay results reported in ChEMBL document CHEMBL1131926, “Synthesis and thromboxane A2 antagonistic activity of indane derivatives” (Bioorg Med Chem Lett, 1999).

How the values were obtained:
[1] = target: T1, Thromboxane A2 receptor (Rattus norvegicus, UniProt P34978); assay: In vitro thromboxane A2 antagonistic activity on U-46619 (0.1 uM) induced contraction of rat aorta; assay type: functional, tissue-based
T1 sequence (P34978 whole entry): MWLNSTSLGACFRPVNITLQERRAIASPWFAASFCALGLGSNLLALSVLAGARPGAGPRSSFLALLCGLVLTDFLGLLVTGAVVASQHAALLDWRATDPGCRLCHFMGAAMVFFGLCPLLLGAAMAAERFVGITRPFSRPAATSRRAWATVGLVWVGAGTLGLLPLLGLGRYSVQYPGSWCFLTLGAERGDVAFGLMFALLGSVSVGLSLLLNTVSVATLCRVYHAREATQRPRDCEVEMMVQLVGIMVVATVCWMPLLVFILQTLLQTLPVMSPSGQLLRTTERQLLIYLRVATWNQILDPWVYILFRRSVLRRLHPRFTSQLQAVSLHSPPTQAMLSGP

[2] = species: Homo sapiens; assay: In vitro inhibitory activity for the aggregation of human platelets induced by U-46,619 (1 uM) was determined; assay type: functional
[3] = species: Cavia porcellus; assay: Extra vivo inhibitory activity for the aggregation of guinea pig platelets induced by U-46,619 (4 uM) was determined; assay type: functional, organism-based
[4] = species: Cavia porcellus; assay: In vitro inhibitory activity for the aggregation of guinea pig platelets induced by U-46,619 (4 uM) was determined; assay type: functional
[5] = system: Cavia porcellus; assay: Ex vivo inhibitory activity (0.3 mg/kg p.o.) on the aggregation of guinea pig platelets induced by arachidonic acid (100 uM); assay type: functional
[6] = system: Cavia porcellus; assay: Extra vivo inhibitory activity of compound (0.3 mg/kg p.o.) on the aggregation of guinea pig platelets induced by U-46619 (1 uM); assay type: functional
[7] = species: Cavia porcellus; assay: Extra vivo inhibitory activity of compound for the aggregation of guinea pig platelets induced by U-46,619 (4 uM) was determined; assay type: functional, organism-based

Structure (SMILES) | IC50 [1] [nM] | Inhibition [5] [%] | Inhibition [6] [%] | also measured
O=C(O)Cc1ccc2c(c1)CC(CCCCNS(=O)(=O)c1ccc(Cl)cc1)C2 (configuration not stated) | 977 |  |  | 
O=C([O-])Cc1ccc2c(c1)CC(CNS(=O)(=O)c1ccc3ccccc3c1)C2.[Na+] (configuration not stated) | 22.4 | 100 | 100 | IC50 [2]: 290 nM; ED50 [3]: 0.13 mg/kg; IC50 [4]: 310 nM
O=C(O)c1ccc2c(c1)CC(CCCCNS(=O)(=O)c1ccc(Cl)cc1)C2 (configuration not stated) | > 479 |  |  | 
O=C(O)Cc1ccc2c(c1)CC(CNS(=O)(=O)c1cccc3ccccc13)C2 (configuration not stated) | 295 |  |  | 
O=C([O-])c1ccc2c(c1)CC(CNS(=O)(=O)c1ccc(Cl)cc1)C2.[Na+] (configuration not stated) | 26.3 | 29 | 58 | 
O=C(O)Cc1ccc2c(c1)CC(CNS(=O)(=O)c1cccnc1)C2 (configuration not stated) | 1900 |  |  | 
O=C(O)Cc1ccc2c(c1)CC(CNS(=O)(=O)Cc1ccccc1)C2 (configuration not stated) | 5900 |  |  | 
O=C(O)c1ccc2c(c1)CC(CCCNS(=O)(=O)c1ccc(Cl)cc1)C2 (configuration not stated) | 85.1 |  |  | 
CCCCCS(=O)(=O)NCC1Cc2ccc(CC(=O)O)cc2C1 (configuration not stated) | 1400 |  |  | 
O=C(O)c1ccc2c(c1)CC(CCNS(=O)(=O)c1ccc(Cl)cc1)C2 (configuration not stated) | 66.1 |  |  | 
O=C(O)Cc1ccc(CCNS(=O)(=O)c2ccc(Cl)cc2)cc1 [DALTROBAN] |  | 25 | 55 | IC50 [2]: 370 nM; ED50 [3]: 0.53 mg/kg; IC50 [4]: 500 nM
O=C(O)Cc1ccc2c(c1)CC(CNS(=O)(=O)c1cccs1)C2 (configuration not stated) | 85.1 |  |  | 
O=C(O)Cc1ccc2c(c1)CC(CCCNS(=O)(=O)c1ccc(Cl)cc1)C2 (configuration not stated) | 513 |  |  | 
O=C([O-])Cc1ccc2c(c1)CC(CCNS(=O)(=O)c1ccc(Cl)cc1)C2.[Na+] (configuration not stated) | 31.6 | 83 | 96 | 
O=C([O-])CCCc1ccc2c(c1)CC(CNS(=O)(=O)c1ccc(Cl)cc1)C2.[Na+] (configuration not stated) | 38.9 | 100 | 100 | IC50 [2]: 2690 nM; ED50 [7]: 0.083 mg/kg; IC50 [4]: 230 nM
O=C(O)CCCCc1ccc2c(c1)CC(CNS(=O)(=O)c1ccc(Cl)cc1)C2 (configuration not stated) | 35.5 |  |  | 
O=C(O)Cc1ccc2c(c1)CC(CNS(=O)(=O)c1ccccc1)C2 (configuration not stated) | 12.9 |  |  | 
O=C(O)Cc1ccc2c(c1)CC(CNS(=O)(=O)C1CCCCC1)C2 (configuration not stated) | 1200 |  |  | 
O=C(O)Cc1ccc2c(c1)CC(NS(=O)(=O)c1ccc(Cl)cc1)C2 (configuration not stated) | 2.19 |  |  | 
O=C([O-])Cc1ccc2c(c1)CC(CNS(=O)(=O)c1ccc(Cl)cc1)C2.[Na+] (configuration not stated) | 3.02 | 100 | 100 | IC50 [2]: 280 nM; ED50 [7]: 0.063 mg/kg; IC50 [4]: 270 nM
O=C(O)Cc1ccc2c(c1)CC(CNS(=O)(=O)c1ccc(Cl)cc1)O2 (configuration not stated) | 141 |  |  | 
O=C([O-])CCc1ccc2c(c1)CC(CNS(=O)(=O)c1ccc(Cl)cc1)C2.[Na+] (configuration not stated) | 14.8 | 57 | 98 | 
